In US20230201550A1, “SYSTEMS AND METHODS FOR TREATING PERSISTENT PAIN OF NEUROGENIC ORIGIN AND COMPLEX INJURY” (Nova Neura, LLC, priority 2020, published 2023):

Legend:
[1] = Stability and crystallization of the topical composition; assay type: physicochemical
From the text: Through experimentation it was discovered that a combination of sugars (e.g. mannitol with dextrose) with or without the addition of corn syrup (also known as glucose-fructose) would impede or completely eliminate the crystallization process, allowing for a higher concentration of these ingredients in solution.

rabbit ear = conditions: rating out of 5 (x/5); cited from earlier work

Row | Molecule | comedogenicity (rabbit ear) | other results
1 | OCC(O)CO [Glycerin] |  | stability in solution / of the formula, shelf-life [1]: highly effective stabilizing measure
2 | OC[C@@H](O)[C@@H](O)[C@H](O)[C@H](O)CO [Mannitol, reference compound] |  | crystallization of Mannitol in cold environments ([1]; winter temperatures or refrigerator, combination of sugars): significantly mitigated or eliminated
3 | O=C1CC[C@@H](C(=O)[O-])N1.[Na+] [Sodium PCA, sodium L-pyroglutamate] | 0/5 | 
4 | CC12CCC(CC1=O)C2(C)C (centres unmarked) [camphor, reference compound] | 2/5 | 
5 | CCCCCCCCCCCCCCCCCCO [cetearyl alcohol] | 4/5 | 
6 | CCCCCCCCCCCCCCCCCC(=O)OCC(O)CO (centres unmarked) [glyceryl stearate] | 3/5 | 
7 | CCCCCCCCCCCCCC(=O)OC(C)C [isopropyl myristate] | 5/5 | 
8 | CCCCCCCCCCCCCCCC(=O)OCCCCCCCC [octyl palmitate] | 4/5 | 
9 | CC(C)=CCC/C(C)=C/CC/C(C)=C/CC/C=C(\C)CC/C=C(\C)CCC=C(C)C [squalene] | 1/5 | 
10 | caprylic/capric triglyceride | 0/5 | 
11 | cyclomethicone | 0/5 | 
